According to patent US20130302889A1, “Differentiation of Bone Marrow Cells into Neuronal Cells and Uses Therefor” (Philadelphia Health and Education Corporation, priority 2002, published 2013):
“Also recorded” adds a separate entry of the source.

Legend:
rMSCs [1] = assay: Neuronal differentiation of rMSCs (morphology); format: cell-based, rat; details: for neuronal morphologies elicited by anti-oxidant treatment: alone and in combination, time course similar to BME
Method: Rat MSCs were originally cultured in alpha-Modified Eagle's Medium (alpha-MEM) supplemented with 20% FBS, 2 mM L-glutamine, 100 units per milliliter penicillin, […] streptomycin and 25 nanogramps per milliliter amphotericin B. For each passage the cells were plated at about 8,000 cells per square centimeter and grown to confluency. At passage 6 the cells were transferred to DMEM (pH 8.0)/20% FBS without additional supplementation, and maintained beyond passage 14. The rat MSCs were obtained with a protocol and procedures approved by the Institutional IACUC. The human samples were obtained from volunteers with informed consent and according to a protocol approved by the Institutional Review Board.
To induce the neuronal phenotype, rMSCs were initially maintained in sub-confluent cultures in media supplemented with 1 mM beta-mercaptoethanol (BME) for 24 hours. […] To effect neuronal differentiation, the cells were transferred to serum-free medium containing 1-10 millimolar BME (SFM/BME). […] Within 60 minutes of exposure to SFM/BME changes in morphology of some of the rMSCs were apparent (FIG. 2C). Responsive cells progressively assumed neuronal morphological characteristics over the first 3 hours. Initially, cytoplasm in the flat rMSCs retracted towards the nucleus, forming a contracted multipolar, cell body, leaving membranous, process-like extensions peripherally (0-90 minutes).
To begin examining the hypothesis that the anti-oxidant properties of BME mediated induction of neuronal differentiation in MSCs, rMSCs were treated with other anti-oxidants, e.g., dimethylsulfoxide (DMSO), butylated hydroxyanisole (BHA), or butylated hydroxytoluene (BHT), ascorbic acid, dimethylfumarate, n-acetylcysteine, and the like, both alone and in combination with each other.

hMSCs = assay: Neuronal differentiation of human MSCs; format: cell-based
Method: Cells from passage two were subjected to the neuronal differentiation protocol and stained for NSE or NF-M expression. […] Contracted cell bodies elaborated processes and stained strongly for NSE expression within 3 hours (FIGS. 8A and 8B). Transitional cells were also evident ( ? ). […] Growth cone morphologies with filopodial extensions ( ? ) were clearly evident on the processes elaborated by paired neurons depicted in the image in FIG. 8C.

rMSC clones = assay: Differentiation of clonal rMSC lines; format: cell-based, rat; details: after BME treatment
Method: To establish clones, rMSCs were plated at approximately 10 cells per square centimeters, grown to 50-150 cells per colony, isolated with cloning cylinders, transferred to separate wells and eventually to individual flasks.

rMSCs [2] = assay: Western blot for NSE in rMSC cultures; format: cell-based, rat; details: 5 hours post BME treatment, versus uninduced rMSCs
Method: […] of protein extract from untreated (U) and BME-induced (I) rMSC cultures was separated on a 4%-20% gradient acrylamide gel and electrophoretically transferred to a nylon membrane. The Western blot was probed for tubulin, expression using an anti-tubulin monoclonal antibody (Sigma Chemical Co., St. Louis, Mo.) followed by secondary antibody conjugated with horse radish peroxidase (HRP). Color development was performed using enhanced chemiluminescence reagents (Amersham, Piscataway, N.J.). The blot was then stripped and probed for NSE expression using anti-NSE polyclonal antibody (ICN). Again, the secondary antibodies were HRP-conjugated, and color was developed using ECL reagents, […]

rMSCs [3] = assay: Immunocytochemistry for neuronal markers in treated rMSCs; format: cell-based, rat
Method: Cultured rMSCs were fixed with 4% paraformaldehyde, incubated with primary antibody overnight at 4° C., incubated with secondary antibody for one hour, followed by exposure to avidin-biotin complex for one hour at 25° C. Diaminobenzidene (DAB) served as chromogenic substrate for HRP.
To further characterize potential neuronal differentiation, BME-treated cultures were stained to detect expression of the neuronal marker neuron-specific enolase (NSE). Unresponsive, flat rMSCs expressed very low, but detectable, levels of NSE protein, consistent with previous detection of minute amounts of protein and/or message in cells of bone marrow origin (Pechumer et al., 1993, Lab. Invest. 89:743-749; Reid et al., 1991, Clin. Pathol. 44:483-486; vanObberghen et al., 1988, J. Neurosci. Res. 19:450-456).

Structure (SMILES): COc1ccc(O)c(C(C)(C)C)c1 [BHA, butylated hydroxyanisole]
- neuronal morphologies elicited by anti-oxidant treatment (rMSCs [1]): elicited neuronal morphologies

Structure (SMILES): Cc1cc(C(C)(C)C)c(O)c(C(C)(C)C)c1 [BHT, butylated hydroxytoluene]
- neuronal morphologies elicited by anti-oxidant treatment (rMSCs [1]): elicited neuronal morphologies

Structure (SMILES): OCCS [BME, beta-mercaptoethanol]
- NF-M expression (hMSCs; hMSC-derived neurons): expressed NF-M
- neuronal characteristics and NSE expression (hMSCs; hMSCs passage two, after BME treatment): attained neuronal characterises and increased NSE expression
- time to strong NSE staining (hMSCs; hMSCs, BME treatment): ≤ 3 h
- generation of NSE-positive neurons from single-cell clones (rMSC clones): differentiated into NSE-positive neurons; also recorded: generated refractile, process-bearing, NSE-positive cells
- NSE expression (Western blot) (rMSCs [2]): significant increase in NSE expression
- percentage of cells adopting a neuronal morphology (rMSCs [1]; SFM with 1-10 millimolar BME, effect of concentration): increased at higher BME concentrations
- percentage of cells adopting a neuronal morphology (rMSCs [1]; effect of BME pretreatment): enhanced by BME pretreatment
- time to apparent changes in morphology (rMSCs [1]; serum-free medium containing 1-10 millimolar BME (SFM/BME)): ≤ 60 minutes
- changes in morphology (rMSCs [1]; sub-confluent cultures, media supplemented with 1 mM BME for 24 hours): no changes in morphology were evident
- NSE expression (immunostaining) (rMSCs [3]; BME-treated cultures): increased expression of NSE
- time to increased expression of neuronal marker NSE (rMSCs [3]; after treatment): ≤ 30 min
- NF-M expression (immunostaining) (rMSCs [3]; cells exhibiting neuronal morphologies): increased expression of NF-M
- NeuN expression (immunostaining) (rMSCs [3]; differentiated cultures): stained for NeuN expression

Structure (SMILES): C[S+](C)[O-] [DMSO, dimethylsulfoxide]
- neuronal morphologies elicited by anti-oxidant treatment (rMSCs [1]): elicited neuronal morphologies

Structure (SMILES): O=C1O[C@H]([C@@H](O)CO)C(O)=C1O [ascorbic acid]
- neuronal morphologies elicited by anti-oxidant treatment (rMSCs [1]): elicited neuronal morphologies

Structure (SMILES): CC(=O)N[C@@H](CS)C(=O)O [n-acetylcysteine]
- neuronal morphologies elicited by anti-oxidant treatment (rMSCs [1]): elicited neuronal morphologies
